Results as given in US5437982A, “Methods of identifying specific inactivation gate inhibitors of the sodium channel” (University of Washington, priority 1993, dated 1995).
“Also recorded” adds a separate entry of the source. Where a SMILES comes first, the peptide text is derived from it.

Assays:
Format in all cases: cell-based
[1] = biological target: wild-type Type IIA sodium channels (Rattus norvegicus, UniProt P04775); assay: Voltage- and frequency-dependent block of sodium channels, sodium currents recorded in CNaIIA-1 cells; settings: for block of rapidly cycling type IIA sodium channels over the entire voltage range: 10 Hz voltage pulses, -50 to +100 mV
Method: (§1) Experiments were performed on wild-type Type IIA sodium channels stably transfected into Chinese hamster ovary (CHO) cells (CNalIA-1; as described in citation 23, which is incorporated herein by reference) and mutant (F1489Q) sodium channels transiently transfected into human kidney carcinoma cells (as described in citations 24 and 25, which are incorporated herein by reference).
The effects of the KIFMK gate peptide on sodium channels was tested by backfilling an electrode with a recording solution containing 1 mM peptide after loading the tip of the electrode with a buffer of peptide-free solution (i.e., to enhance seal formation when the electrode was inserted into a cell). After forming a high-resistance seal and breaking through the cell membrane, the peptide rapidly diffused into the cell and caused the appearance of tail currents (see below) within 10 minutes. When stabilized, sodium currents were recorded in the cells before and after a series of 10 Hz voltage pulses that varied over the range -50 to +100 mV. Parallel control experiments were conducted in which electrodes were not backfilled with peptides. The magnitude of the sodium currents in the experimental and control preparations were compared.
As a control, a KIQMK peptide was prepared to mimic the sequence present in mutant F 1489Q sodium channels.

[2] = test system: mutant F1489Q sodium channels; assay: Restoration of inactivation in mutant sodium channels transiently expressed in TSQ-201 cells; settings: for inactivation of mutant (F1489Q) sodium channels: peptide perfused at 1 mM into TSQ-201 cells, FIG. 4
Method: as §1
Mutant F1489Q sodium channels were transiently expressed in TSQ-201 cells (24). The mutant channels in the cells activated normally but inactivated very slowly. […] The time course of inactivation for the mutant channels was dramatically slowed over the entire voltage range. Having established the properties of the test cells and mutant channels, the peptides KIFMK and KIQMK were next tested. KIFMK or KIQMK were perfused (at a concentration of 1 mM) into the TSQ-201 cells expressing the mutant (F1489Q) sodium channels.

[3] = biological target: Wild-type IIA sodium channels (Rattus norvegicus, UniProt P04775); assay: Competition with the normal inactivation process: tail currents by whole-cell voltage clamp; settings: cell perfused with peptide; for macroscopic sodium current elicited by depolarizing test pulse to 0 mV: versus controls; for tail currents elicited by repolarization pulse: from 0 to -80 mV, FIG. 5
Text: Considering binding of KIFMK inactivation gate peptide to putative inactivation gate receptor site(s) in the intracellular mouth of the sodium channel, peptide binding might prevent channel closure by the natural inactivation gate due to steric hindrance. In this model, closure of the inactivation gate would be prevented by the drug and after depolarization-induced opening, repolarization should cause the peptide to dissociate from the channel, leaving the channel open for a "brief period" of time before closure and inactivation can block the channel. The existence of the "brief period" of channel opening was captured and recorded as a rising component of tail current in the following experiments.
Wild-type IIA sodium channels were recorded using a whole-cell voltage clamp method. Under the recording conditions used, the sodium channels have tail currents upon rapid repolarization that declined exponentially without a rising phase because the channel rapidly closes upon repolarization (FIG. 5A). The magnitude of the tail currents decreases as the duration of the test pulse is increased. Repetitive pulsing created a family of tail current recordings that decreased exponentially (from a starting level near that of the sodium current), without any rising component in the recorded curves (FIG. 5A). […] The amplitude of the rising component of the latter tail currents decreased with increasing pulse duration as the macroscopic sodium current decreased.

[4] = biological target: scorpion-toxin modified wild-type sodium channels (Rattus norvegicus, UniProt P04775); assay: Inactivation in scorpion-toxin modified wild-type sodium channels in CNaIIA-1 cells; settings: 100 nM LqTx in bath; test voltage to 0 mV; FIG. 6
Text: Externally applied alpha-scorpion toxins slow sodium channel inactivation without affecting activation (reviewed in 26). Sodium currents in stably transfected CNaIIA-1 cells respond to a depolarizing test voltage to 0 mV with rapid activation and inactivation of the sodium channel. […] KIQMK, on the other hand, had no effect (FIG. 6).

[5] = biological target: sodium channel in CNaIIA cells (Rattus norvegicus, UniProt P04775); assay: Blocking of the sodium channel in CNaIIA cells by IFM-amide during repetitive stimulation; settings: for dependence of inhibition of sodium channels / sodium channel blocking: repetitive stimulation; for sodium channel blocking: FIGS. 7 and 8
Text: It was reasoned that a tripeptide IFM-amide could be an effective inactivation gate peptide since it contains both the critical IFM residues and the charge of the unblocked α-amino group in the isoleucine residue. […] During repetitive stimulation, increased inhibition is observed with each succeeding pulse (pulse #) until a steady state is reached (FIG. 7). The degree of inhibition at steady state is dependent on the frequency of the stimulation pulses (% Ipulse #1; FIG. 7) and on the voltage of the stimulating pulses (FIG. 8). […] This implies that IFM amide has greater intrinsic affinity for the receptor site that blocks the sodium channel.

Na+ channels = assay: Structural specificity: ability of peptides to block sodium channels and restore fast inactivation; settings: qualitative summary; methods similar to Examples 1-4
Text: The results of these experiments are summarized qualitatively below.

sodium channel in CNaIIA cells, sequence (P04775 whole entry): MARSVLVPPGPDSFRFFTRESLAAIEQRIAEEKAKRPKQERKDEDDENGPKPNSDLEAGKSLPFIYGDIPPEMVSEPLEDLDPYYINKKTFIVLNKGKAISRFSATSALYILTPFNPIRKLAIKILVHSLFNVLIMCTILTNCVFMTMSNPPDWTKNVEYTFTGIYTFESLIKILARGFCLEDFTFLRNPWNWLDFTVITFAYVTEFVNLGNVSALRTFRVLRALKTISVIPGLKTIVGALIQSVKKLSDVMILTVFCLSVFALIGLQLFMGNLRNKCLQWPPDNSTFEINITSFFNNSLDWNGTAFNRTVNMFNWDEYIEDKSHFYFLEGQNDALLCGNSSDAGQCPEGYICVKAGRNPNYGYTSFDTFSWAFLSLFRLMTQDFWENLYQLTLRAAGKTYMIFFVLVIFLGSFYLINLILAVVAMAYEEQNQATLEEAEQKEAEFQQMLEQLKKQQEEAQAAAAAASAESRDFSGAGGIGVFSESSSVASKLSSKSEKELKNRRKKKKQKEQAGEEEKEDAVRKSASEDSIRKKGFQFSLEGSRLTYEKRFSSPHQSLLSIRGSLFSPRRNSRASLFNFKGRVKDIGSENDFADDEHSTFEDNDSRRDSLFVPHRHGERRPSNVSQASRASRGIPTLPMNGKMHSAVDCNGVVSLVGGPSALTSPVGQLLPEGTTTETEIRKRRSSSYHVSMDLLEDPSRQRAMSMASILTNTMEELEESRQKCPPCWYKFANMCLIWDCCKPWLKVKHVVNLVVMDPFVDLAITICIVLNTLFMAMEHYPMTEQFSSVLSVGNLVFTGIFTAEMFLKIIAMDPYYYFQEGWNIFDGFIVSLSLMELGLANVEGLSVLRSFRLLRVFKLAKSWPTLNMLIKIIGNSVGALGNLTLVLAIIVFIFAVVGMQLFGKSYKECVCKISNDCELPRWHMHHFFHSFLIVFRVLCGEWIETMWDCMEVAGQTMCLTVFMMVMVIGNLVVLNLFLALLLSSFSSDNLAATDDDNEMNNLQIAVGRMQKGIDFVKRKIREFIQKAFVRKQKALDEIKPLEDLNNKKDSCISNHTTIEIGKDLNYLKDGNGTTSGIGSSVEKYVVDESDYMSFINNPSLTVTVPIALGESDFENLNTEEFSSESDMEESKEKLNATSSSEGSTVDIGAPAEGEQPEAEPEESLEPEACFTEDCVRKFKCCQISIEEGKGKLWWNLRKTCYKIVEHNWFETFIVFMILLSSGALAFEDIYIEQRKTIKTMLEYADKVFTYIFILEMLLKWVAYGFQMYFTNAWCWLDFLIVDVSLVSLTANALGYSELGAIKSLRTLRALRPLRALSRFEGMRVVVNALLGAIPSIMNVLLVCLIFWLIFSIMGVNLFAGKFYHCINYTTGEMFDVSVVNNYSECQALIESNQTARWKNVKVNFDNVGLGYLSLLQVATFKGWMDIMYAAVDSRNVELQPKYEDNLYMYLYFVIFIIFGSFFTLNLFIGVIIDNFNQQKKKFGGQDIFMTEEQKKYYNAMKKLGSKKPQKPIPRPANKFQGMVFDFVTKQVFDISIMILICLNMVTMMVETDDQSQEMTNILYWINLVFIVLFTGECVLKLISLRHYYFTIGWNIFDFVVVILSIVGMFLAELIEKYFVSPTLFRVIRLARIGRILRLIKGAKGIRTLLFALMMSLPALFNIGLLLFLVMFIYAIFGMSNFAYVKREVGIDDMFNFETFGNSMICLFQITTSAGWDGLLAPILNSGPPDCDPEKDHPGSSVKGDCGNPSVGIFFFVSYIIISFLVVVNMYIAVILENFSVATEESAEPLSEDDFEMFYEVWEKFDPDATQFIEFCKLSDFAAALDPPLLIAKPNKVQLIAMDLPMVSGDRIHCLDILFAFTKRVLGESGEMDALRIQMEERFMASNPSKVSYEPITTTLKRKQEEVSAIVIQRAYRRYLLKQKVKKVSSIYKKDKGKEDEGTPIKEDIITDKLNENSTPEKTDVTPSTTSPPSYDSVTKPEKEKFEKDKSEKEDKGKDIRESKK
scorpion-toxin modified wild-type sodium channels, sequence (P04775 whole entry): as above
Wild-type IIA sodium channels, sequence (P04775 whole entry, the tested form may be a part): as the sequence (P04775 whole entry) above
wild-type Type IIA sodium channels, sequence (P04775 whole entry): as above

Ac-KIQMK-NH2 [KIQMK, acetyl-KIQMK-amide, reference compound]
block of rapidly cycling type IIA sodium channels over the entire voltage range ([1]; FIG. 3): inactive; also recorded: did not block
inactivation of mutant (F1489Q) sodium channels [2]: without effect; also recorded: did not
macroscopic sodium current elicited by depolarizing test pulse to 0 mV [3]: no significant effect
tail currents elicited by repolarization pulse [3]: no significant effect; also recorded: no significant gating currents
initial rate of sodium channel inactivation in presence of α-scorpion toxin [4]: no effect

CC[C@H](C)[C@H](N)C(=O)N[C@@H](Cc1ccccc1)C(=O)N[C@@H](CCSC)C(N)=O [IFM-amide] (H-Ile-Phe-Met-NH2)
membrane potentials at which block is effective, compared with KIFMK ([5]; compare FIGS. 3 and 8): effective sodium channel blocker at much more negative membrane potentials than KIFMK
blocking activity compared with IFM free acid or acetyl IFM free acid ([5]; experiments like those in Example 6): increased blocking activity
dependence of inhibition of sodium channels [5]: voltage-sensitive blocking
sodium channel blocking [5]: blocking of the sodium channel
sodium channel blocking ([5]; listed as IFM amide): very effective sodium channel blocker
dependence of inhibition of sodium channels ([5]; listed as IFM amide): voltage- and frequency-dependent

Ac-DIFMT-NH2 [acetyl-DIFMT-amide]
Inhibition of Na+ channels (Na+ channels): ineffective

CC[C@H](C)[C@H](NC(=O)[C@H](CCCCN)NC(C)=O)C(=O)N[C@@H](Cc1ccccc1)C(=O)N[C@@H](CCSC)C(=O)N[C@@H](CCCCN)C(N)=O [KIFMK, acetyl-KIFMK-amide]
time to appearance of tail currents after peptide diffusion into the cell ([1]; 1 mM peptide in backfilled electrode): ≤ 10 min
reduction (inhibition) of sodium currents in response to frequent depolarizing pulses ([1]; 1 mM peptide in electrode, 10 Hz pulses, after 15 min perfusion/cycling): substantial level of inhibition; also recorded: substantially reduced
channel block by 10 Hz pulses given at 100 mV ([1]; 1 mM peptide, FIG. 3): completely blocked
reduction in sodium current when cell membranes not depolarized frequently ([1]; 1 mM peptide, closed channels): Little reduction
blockage of currents generated in response to 10 Hz pulses at positive voltages ([1]; 1 mM peptide, greater than 0 mV): substantial
block of rapidly cycling type IIA sodium channels over the entire voltage range ([1]; FIG. 3): inhibited
inhibition of sodium currents within 4 minutes of cycling ([1]; FIG. 2A, relative to control recording without peptide): insignificant level of inhibition
character of the inhibitory effect on the sodium channel ([1]; combined results of Example 1): strong and voltage- and frequency-dependent
time to steady-state level of inhibition ([2]; 1 mM peptide): less than 2 ms
course and extent of induced inactivation ([2]; 1 mM, compared with wild-type channel function): rapid but incomplete
inactivation of mutant (F1489Q) sodium channels [2]: restore inactivation; also recorded: successfully inactivated
macroscopic sodium current elicited by depolarizing test pulse to 0 mV [3]: decayed with a time course faster than that of controls
tail currents elicited by repolarization pulse [3]: rose to a peak and then decayed much more slowly than in controls; also recorded: significant tail currents
initial rate of sodium channel inactivation in presence of α-scorpion toxin [4]: significantly accelerated; also recorded: partially restore inactivation activity
